Source: paper PMC5453487, “Targeting YAP/TAZ-TEAD protein-protein interactions using fragment-based and computational modeling approaches” (PLoS ONE, 2017)

Biological target: mouse TEAD4 (mTEAD4) (Mus musculus, UniProt Q62296)
Assay: X-ray co-crystal structure ([…] Å), ITC; also thermal shift assay and MST ([…])
Type: binding

mouse TEAD4 (mTEAD4), sequence (Q62296 210-427): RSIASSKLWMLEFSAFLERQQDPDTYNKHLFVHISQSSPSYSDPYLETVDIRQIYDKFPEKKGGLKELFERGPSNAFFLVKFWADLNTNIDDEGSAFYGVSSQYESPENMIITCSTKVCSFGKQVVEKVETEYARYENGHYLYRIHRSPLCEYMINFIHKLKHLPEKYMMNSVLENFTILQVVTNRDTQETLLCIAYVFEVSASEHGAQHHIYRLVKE

`O=C(O)C(c1ccccc1)n1cccc1` (stereo not shown) [compound 1, fragment 1] gave a Kd of about 300 µM.
